The values below come from US20240025899A1, “TRIHETEROCYCLIC DERIVATIVE, AND PHARMACEUTICAL COMPOSITION AND APPLICATION THEREOF” (SHANGHAI DE NOVO PHARMATECH CO., LTD., priority 2020, published 2024).

The term IC50 denotes the concentration at which inhibition is half-maximal. Higher therefore signals weaker potency in that assay.

Counter-ions that a name gives are not always drawn.

In experiment [1] the test system is OCI-LY19 human B-cell lymphoma. The experiment in a line: In vivo drug efficacy, OCI-LY19 human B-cell lymphoma mouse subcutaneous xenograft tumor model. The conditions noted are these: Group 2, 20 mg/kg p.o. once a day. On the procedure:
Cell culture: Human B-cell lymphoma OCI-LY19 cells were maintained as a monolayer in MEM-α medium containing 10% fetal bovine serum in a constant temperature incubator at 37° C. with 5% CO2. Tumor cells were subcultured twice a week. Cells in exponential growth phase were harvested and counted for inoculation.
Experimental animals: BALB/c nude mice, 6-8 weeks old, 19-22 g, purchased from Beijing Vital River Laboratory Animal Technology Co., Ltd.
For Vehicle, positive control (AZD6738, CAS number: 1352226-88-0) and compound 2, a total of 6 experimental groups were set up, as shown in Table 5 below:
Experimental method: The OCI-LY19 cell line (3.0×10^6 cells/mouse) was inoculated subcutaneously on the right back of the experimental mouse, and the inoculation volume of each mouse was 0.1 mL, and the growth of tumors was observed regularly, and until the tumor grew to about 100 mm^3, the mice were randomly divided into groups according to the tumor size and body weight, and administered according to the administration plan shown in Table 5, and the mouse body weight and tumor size were measured twice a week during the whole experiment.
tumor volume (mm^3)=0.5×(tumor long diameter×tumor short diameter^2). Tumor size calculation formula: […]

A further experiment deals with ATR/ATRIP kinase (Homo sapiens (Human), UniProt Q13535). Put plainly: ATR enzyme assay (HTRF, phosphorylation of substrate protein P53). Type of experiment: biochemical. The settings on record: substrate P53, TR-FRET. On the procedure:
In this experiment, the phosphorylation level of substrate protein P53 (Eurofins, 14-952) was detected by HTRF technology to measure the activity of ATR/ATRIP (Eurofins, 14-953) kinase. Reaction buffer (25 mM HEPES pH 8.0, 0.01% Brij-35, 1% Glycerol, 5 mM DTT, 1 mg/mL BSA), termination buffer (12.5 mM HEPES pH 8.0, 0.005% Brij-35, 0.5% Glycerol, 250 mM EDTA) and assay buffer (50 mM HEPES pH 7.0, 150 mM NaCl, 267 mM KF, 0.1% sodium cholate, 0.01% Tween 20) were prepared in advance. ATR/ATRIP was diluted with reaction buffer to a working solution of 2 ng/μL, and the substrate protein P53 was diluted with reaction buffer to a working solution of 80 nM, and 4 nM of ATP (Sigma, A2383) working solution (containing 40 mM MnCl2) was prepared with reaction buffer. The compound was 3-fold diluted with DMSO, then diluted with reaction buffer into a working solution, then added to a 384-well plate at 2.5 μL/well, and centrifuged at 1500 rpm for 40 s. Then 2.5 μL of ATR/ATRIP working solution, P53 working solution and ATP working solution were added into the 384-well plate, centrifuged at 1500 rpm for 40 s and reacted at room temperature for 30 minutes. After the reaction was completed, 5 μL of termination buffer was added to each well, and centrifuged at 1500 rpm for 40 s. Antibody working solution containing 0.083 μg/mL anti-phospho-p53 (Ser15)-K (CisBio, cat. 61P08KAE) and 5 μg/mL anti-GST-d2 (CisBio, cat. 61GSTDLA) was prepared with assay buffer and added to the 384-well plate at 5 μL/well, then centrifuged at 1500 rpm for 40 s and reacted overnight at room temperature. Microplate reader (Tecan, Infinite M1000 Pro) was used to detect TR-FRET, and the data were analyzed with Graphpad software, and the four-parameter equation was used to fit the curve and calculate the IC50 value of the inhibitor (Table 1).
Background: Time-resolved FRET reads energy transfer from a long-lived donor to a nearby acceptor.

Experiment [2] concerns LOVO human colon cancer cell line. The experiment in a line: Cell proliferation assay (Cell titer glo). It is filed as cell-based. The settings on record: LOVO cells, 72 hours. On the procedure:
In the present disclosure, cell assays were used to evaluate the biological activity of compounds. LOVO (Nanjing Cobioer), a human colon cancer cell line, was cultured in a Dulbecco's Modified Eagle's medium 96-well plate, supplemented with 10% fetal bovine serum and 1% P/S, and the culture environment was 37° C. and 5% CO2. Compound concentrations were ranged from 4.5 nM to 30 μM. The stock solution of the test compound was dissolved in DMSO and added to the medium at the indicated concentration, and incubated for 72 hours. Negative control cells were treated with vehicle only. In some experiments, known ATR inhibitors were added as positive controls. Cell viability was evaluated using the Cell titer glo kit (CTG, Promega) under the instructions of the product specification. The data were analyzed using Graphpad software, and IC50 values and compound fitting curves were obtained (Table 2).

Sequence of ATR/ATRIP kinase (Q13535 whole entry): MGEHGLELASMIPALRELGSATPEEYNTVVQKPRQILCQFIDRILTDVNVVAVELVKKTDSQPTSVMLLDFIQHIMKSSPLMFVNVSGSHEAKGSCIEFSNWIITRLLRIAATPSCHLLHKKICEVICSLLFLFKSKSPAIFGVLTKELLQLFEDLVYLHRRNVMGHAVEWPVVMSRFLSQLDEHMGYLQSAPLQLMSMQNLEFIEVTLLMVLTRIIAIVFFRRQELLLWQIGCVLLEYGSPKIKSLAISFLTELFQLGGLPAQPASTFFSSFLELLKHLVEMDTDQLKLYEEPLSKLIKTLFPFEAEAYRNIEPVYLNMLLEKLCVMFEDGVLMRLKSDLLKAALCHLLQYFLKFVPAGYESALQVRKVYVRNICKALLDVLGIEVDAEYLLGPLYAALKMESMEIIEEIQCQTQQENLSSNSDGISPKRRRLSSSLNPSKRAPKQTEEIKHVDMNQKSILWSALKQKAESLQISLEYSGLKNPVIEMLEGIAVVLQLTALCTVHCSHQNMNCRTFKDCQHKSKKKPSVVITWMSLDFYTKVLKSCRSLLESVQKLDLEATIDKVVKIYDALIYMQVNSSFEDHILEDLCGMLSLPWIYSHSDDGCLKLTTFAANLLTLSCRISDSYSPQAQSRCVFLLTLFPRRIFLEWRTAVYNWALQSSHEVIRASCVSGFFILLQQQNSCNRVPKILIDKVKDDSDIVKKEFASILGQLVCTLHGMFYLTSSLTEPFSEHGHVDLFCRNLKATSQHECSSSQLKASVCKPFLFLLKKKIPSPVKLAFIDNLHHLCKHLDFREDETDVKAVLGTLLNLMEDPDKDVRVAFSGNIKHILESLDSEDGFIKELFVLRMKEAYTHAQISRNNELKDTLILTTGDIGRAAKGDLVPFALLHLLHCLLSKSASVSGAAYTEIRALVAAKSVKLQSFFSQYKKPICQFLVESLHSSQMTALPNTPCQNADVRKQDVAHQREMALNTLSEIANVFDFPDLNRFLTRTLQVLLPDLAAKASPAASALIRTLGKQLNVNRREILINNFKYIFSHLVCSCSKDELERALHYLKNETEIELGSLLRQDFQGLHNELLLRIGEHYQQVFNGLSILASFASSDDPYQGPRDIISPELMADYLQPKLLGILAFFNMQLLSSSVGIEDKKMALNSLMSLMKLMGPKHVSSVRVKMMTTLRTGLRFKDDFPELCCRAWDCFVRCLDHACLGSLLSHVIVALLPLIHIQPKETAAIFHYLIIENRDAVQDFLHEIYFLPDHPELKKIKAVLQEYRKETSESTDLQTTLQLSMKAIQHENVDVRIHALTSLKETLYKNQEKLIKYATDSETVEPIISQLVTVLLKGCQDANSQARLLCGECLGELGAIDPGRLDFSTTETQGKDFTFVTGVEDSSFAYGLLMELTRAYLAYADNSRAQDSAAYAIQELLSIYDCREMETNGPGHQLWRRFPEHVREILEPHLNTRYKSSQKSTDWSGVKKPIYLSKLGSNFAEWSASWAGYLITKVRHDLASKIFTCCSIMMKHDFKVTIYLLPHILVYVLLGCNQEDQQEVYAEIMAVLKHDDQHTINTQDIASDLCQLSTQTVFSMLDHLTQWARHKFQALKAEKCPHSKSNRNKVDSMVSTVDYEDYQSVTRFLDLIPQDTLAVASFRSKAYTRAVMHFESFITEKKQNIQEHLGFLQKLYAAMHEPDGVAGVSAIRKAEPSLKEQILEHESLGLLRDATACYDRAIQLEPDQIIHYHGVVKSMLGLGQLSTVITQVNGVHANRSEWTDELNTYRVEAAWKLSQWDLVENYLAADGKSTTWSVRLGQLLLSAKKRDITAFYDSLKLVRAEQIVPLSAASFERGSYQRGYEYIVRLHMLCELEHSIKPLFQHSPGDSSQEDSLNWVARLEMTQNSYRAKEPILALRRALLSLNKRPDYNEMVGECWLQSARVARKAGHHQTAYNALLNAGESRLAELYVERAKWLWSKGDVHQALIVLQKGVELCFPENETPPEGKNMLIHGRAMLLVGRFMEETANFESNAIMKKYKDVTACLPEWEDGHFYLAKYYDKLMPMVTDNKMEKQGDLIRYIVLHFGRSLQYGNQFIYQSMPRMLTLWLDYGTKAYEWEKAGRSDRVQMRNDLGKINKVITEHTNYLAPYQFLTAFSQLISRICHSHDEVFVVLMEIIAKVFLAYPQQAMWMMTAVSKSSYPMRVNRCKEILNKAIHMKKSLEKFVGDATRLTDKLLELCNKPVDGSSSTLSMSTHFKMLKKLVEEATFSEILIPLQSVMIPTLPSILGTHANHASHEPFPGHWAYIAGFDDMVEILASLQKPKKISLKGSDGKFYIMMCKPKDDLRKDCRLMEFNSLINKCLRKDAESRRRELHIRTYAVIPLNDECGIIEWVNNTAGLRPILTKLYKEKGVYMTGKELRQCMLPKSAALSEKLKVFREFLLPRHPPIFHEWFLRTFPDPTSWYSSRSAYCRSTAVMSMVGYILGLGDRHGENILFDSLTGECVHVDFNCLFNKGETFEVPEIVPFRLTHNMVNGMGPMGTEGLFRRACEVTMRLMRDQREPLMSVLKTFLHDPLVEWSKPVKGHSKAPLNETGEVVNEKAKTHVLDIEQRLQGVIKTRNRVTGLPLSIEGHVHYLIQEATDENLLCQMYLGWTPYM
Sequence of ATR/ATRIP kinase (Q8WXE1 whole entry partner): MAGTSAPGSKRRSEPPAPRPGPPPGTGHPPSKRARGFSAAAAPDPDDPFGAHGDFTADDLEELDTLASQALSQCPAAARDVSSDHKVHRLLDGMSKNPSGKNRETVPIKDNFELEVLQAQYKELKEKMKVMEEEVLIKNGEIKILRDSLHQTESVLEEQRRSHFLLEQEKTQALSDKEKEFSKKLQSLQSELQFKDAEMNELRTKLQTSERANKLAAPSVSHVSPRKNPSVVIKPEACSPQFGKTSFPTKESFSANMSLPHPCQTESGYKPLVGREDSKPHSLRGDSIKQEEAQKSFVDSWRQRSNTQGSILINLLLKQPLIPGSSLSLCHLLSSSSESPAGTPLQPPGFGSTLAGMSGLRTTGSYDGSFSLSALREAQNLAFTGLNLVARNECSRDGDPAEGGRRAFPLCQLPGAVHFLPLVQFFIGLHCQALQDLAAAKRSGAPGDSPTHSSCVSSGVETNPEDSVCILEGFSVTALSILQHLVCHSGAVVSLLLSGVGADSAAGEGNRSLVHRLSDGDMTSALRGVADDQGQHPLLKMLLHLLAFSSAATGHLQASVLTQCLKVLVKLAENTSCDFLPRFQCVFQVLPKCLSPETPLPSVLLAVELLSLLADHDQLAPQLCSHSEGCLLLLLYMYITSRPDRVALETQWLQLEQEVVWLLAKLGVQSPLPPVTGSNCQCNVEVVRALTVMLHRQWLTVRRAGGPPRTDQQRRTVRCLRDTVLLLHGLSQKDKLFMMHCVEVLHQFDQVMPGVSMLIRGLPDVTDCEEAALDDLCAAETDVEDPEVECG

For the molecule `C[C@@H]1COCCN1c1cc(C2([S@](C)(=N)=O)CC2)nc(-c2cc[nH]c3nccc2-3)n1` [AZD6738, reference compound], in experiment [1], the “T/C (%)” value was found to be 31.2% and the “TGI (%)” value stood at 72.1%. For the same molecule, the “Tumor volume (10 days, mm^3)” value in experiment [1] (10 days) was 108.23 ± 4.67 mm^3. Besides, in experiment [1] (24 days), the “Tumor volume (24 days, mm^3)” value amounted to 738.65 ± 257.29 mm^3.
On ATR/ATRIP kinase, `C[C@@H]1COCCN1c1nc2c(cnn2-c2cc[nH]n2)c2c1CCN2S(=O)(=O)N(C)C` [Compound 4, (R)—N,N-dimethyl-4-(3-methylmorpholino)-6-(1H-pyrazol-3-yl)-2,3-dihydropyrazolo[3,4-b]pyrrolo[2,3-d]pyridine-1(6H)-sulfonamide trifluoroacetate] displayed an IC50 of 1.8 nM.
In turn, `C[C@@H]1COCCN1c1nc2c(cnn2-c2cc[nH]n2)c2c1CCN2S(N)(=O)=O` [Compound 5, (R)-4-(3-methylmorpholine)-6-(1H-pyrazol-3-yl)-2,3-dihydropyrazolo[3,4-b]pyrrolo[2,3-d]pyridine-1(6H)-sulfonamide] registered an IC50 in experiment [2] of 262 nM.
Consider `C[C@@H]1COCCN1c1nc2c(cnn2-c2cc[nH]n2)c2c1CCN2S(=O)(=O)C(F)(F)F` [Compound 6, (R)-4-(6-(1H-pyrazol-3-yl)-1-((trifluoromethyl)sulfonyl)-1,2,3,6-tetrahydropyrazolo[3,4-b]pyrrolo[2,3-d]pyridin-4-yl)-3-methylmorpholine trifluoroacetate], for which the IC50 is 79.6 nM in experiment [2] and 4.8 nM at ATR/ATRIP kinase.
On the same counts, the results for `C[C@@H]1COCCN1c1nc2c(c(C#N)nn2-c2cc[nH]n2)c2c1CCN2S(C)(=O)=O` [Compound 7, (R)-4-(3-methylmorpholinyl)-1-(methylsulfonyl)-6-(1H-pyrazol-3-yl)-1,2,3,6-tetrahydropyrazolo[3,4-b]pyrrolo[2,3-d]pyridine-8-carbonitrile] are 406 nM and 46 nM.
On the same counts, the results for `C[C@@H]1COCCN1c1nc2c(-c3cc[nH]n3)nccc2c2c1ccn2S(C)(=O)=O` [Compound 8, (R)-3-methyl-4-(1-(methylsulfonyl)-6-(1H-pyrazol-3-yl)-1H-pyrrolo[3,2-c][1,7]naphthyridin-4-yl)morpholine] are 32.3 nM and 40 nM.
As to `C[C@@H]1COCCN1c1nc2c(cnn2-c2cc[nH]n2)c2c1CCN2C1CC1` [Compound 11, (R)-4-(1-cyclopropyl-6-(1H-pyrazol-3-yl)-1,2,3,6-tetrahydropyrazolo[3,4-b]pyrrolo[2,3-d]pyridin-4-yl)-3-methylmorpholine], the IC50 in experiment [2] turned out to be 72 nM; against ATR/ATRIP kinase, 5.9 nM.
In turn, `C[C@@H]1COCCN1c1nc2c(cnn2-c2cc[nH]n2)c2c1CCN2C` [Compound 12, (R)-3-methyl-4-(1-methyl-6-(1H-pyrazol-3-yl)-tetrahydropyrazolo[3,4-b]pyrrolo[2,3-d]pyridin-4-yl)morpholine] returned an IC50 in experiment [2] of 93.7 nM.
`C[C@@H]1COCCN1c1nc2c(cnn2-c2cc[nH]n2)c2c1CCN2c1cccnc1` [Compound 13, (R)-4-(6-(1H-pyrazol-3-yl)-1-(pyridin-3-yl)-1,2,3,6-tetrahydropyrazolo[3,4-b]pyrrolo[2,3-d]pyridin-4-yl)-3-methylmorpholine trifluoroacetate]: it took 7.5 nM to reach half-maximal inhibition on ATR/ATRIP kinase (IC50).
